Experimental data as given in ChEMBL document CHEMBL1201862, “PubChem BioAssay data set” (2004).
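Protocol summary: plate cells (96-well), add compound at 5 concentrations, incubate 48 h, interpolate endpoints linearly. GI50 = concentration required for 50% inhibition of growth.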 Active and inactive are the calls of the source. No stated cut-off is given here; in the data, active = GI50 up to about 1.1 µM and inactive = higher.

Experiments:
Test in all cases: inhibition of tumour cell growth, NCI panel, 48 h
U-251 = test system: U-251
SNB-75 = test system: SNB-75
KM12 = test system: KM12
CAKI-1 = test system: CAKI-1
RXF 393 = test system: RXF 393
OVCAR-3 = test system: OVCAR-3
NCI-H460 = test system: NCI-H460
SF-539 = test system: SF-539
NCI-H23 = test system: NCI-H23
SN12C = test system: SN12C
MCF7 = test system: MCF7
Hs-578T = test system: Hs-578T
SF-295 = test system: SF-295
HCT-116 = test system: HCT-116
SF-268 = test system: SF-268
MDA-MB-231 = test system: MDA-MB-231
SK-MEL-2 = test system: SK-MEL-2
SK-MEL-28 = test system: SK-MEL-28
HCC 2998 = test system: HCC 2998
HT-29 = test system: HT-29

Measured: GI50

C#CCCOC(=O)c1ccccc1OC(C)=O
inactive: U-251 > 100 µM | SNB-75 > 100 µM | KM12 > 100 µM | CAKI-1 > 100 µM | RXF 393 > 100 µM | OVCAR-3 > 100 µM | NCI-H460 > 100 µM | SF-539 > 100 µM | NCI-H23 > 100 µM | SN12C > 100 µM | MCF7 > 100 µM | Hs-578T > 100 µM | SF-295 > 100 µM | HCT-116 > 100 µM | SF-268 > 100 µM | MDA-MB-231 > 100 µM | SK-MEL-2 > 100 µM

COc1cc2oc(-c3ccc(O)cc3)cc(=O)c2c(OC)c1OC
inactive: U-251 > 100 µM | SNB-75 18.4 µM | SK-MEL-28 > 100 µM | KM12 > 100 µM | CAKI-1 > 100 µM | RXF 393 > 100 µM | OVCAR-3 > 100 µM | HCC 2998 > 100 µM | HT-29 > 100 µM | NCI-H460 > 100 µM | SF-539 > 100 µM | NCI-H23 > 100 µM | SN12C > 100 µM | MCF7 > 100 µM | Hs-578T > 100 µM | SF-295 > 100 µM | HCT-116 > 100 µM | SF-268 > 100 µM | MDA-MB-231 > 100 µM

CC[C@]12C=CCN3CC[C@@]4(c5cc(Br)c(OC)cc5N(C)[C@H]4[C@@](O)(C(=O)N[C@@H](Cc4ccc(O)cc4)C(=O)OC)[C@@H]1O)[C@@H]32
inactive: U-251 14.6 µM | SK-MEL-28 > 100 µM | KM12 11.3 µM | CAKI-1 18.7 µM | RXF 393 17.6 µM | OVCAR-3 25.6 µM | HCC 2998 25.5 µM | HT-29 14.6 µM | NCI-H460 18.2 µM | SF-539 19.7 µM | NCI-H23 52.4 µM | SN12C 16.5 µM | MCF7 23.1 µM | Hs-578T 20.7 µM | SF-295 19.3 µM | HCT-116 34.8 µM | SF-268 13.6 µM | MDA-MB-231 11 µM | SK-MEL-2 20.1 µM

CNC(=S)/C(C#N)=C(\N)N1CCN(C)CC1
inactive: U-251 > 100 µM | SNB-75 > 100 µM | KM12 > 100 µM | CAKI-1 > 100 µM | RXF 393 > 100 µM | OVCAR-3 > 100 µM | HCC 2998 > 100 µM | HT-29 > 100 µM | SF-539 > 100 µM | NCI-H23 > 100 µM | SN12C > 100 µM | MCF7 > 100 µM | Hs-578T > 100 µM | SF-295 > 100 µM | HCT-116 > 100 µM | SF-268 > 100 µM | MDA-MB-231 30.5 µM | SK-MEL-2 > 100 µM

CC(C)CC(N)C(=O)O (configuration not stated)
inactive: U-251 > 100 µM | SNB-75 > 100 µM | SK-MEL-28 > 100 µM | KM12 > 100 µM | CAKI-1 > 100 µM | RXF 393 > 100 µM | OVCAR-3 > 100 µM | HT-29 > 100 µM | NCI-H460 > 100 µM | SF-539 > 100 µM | NCI-H23 > 100 µM | SN12C > 100 µM | MCF7 > 100 µM | Hs-578T > 100 µM | SF-295 > 100 µM | HCT-116 > 100 µM | SF-268 > 100 µM | MDA-MB-231 > 100 µM | SK-MEL-2 > 100 µM

C[C@H]1CCCCC[C@@H]2CC(=O)CC2C(=O)CCC(=O)O1 (some centres not stated)
inactive: U-251 > 100 µM | SNB-75 9.02 µM | SK-MEL-28 > 100 µM | KM12 > 100 µM | RXF 393 > 100 µM | OVCAR-3 > 100 µM | HCC 2998 > 100 µM | HT-29 > 100 µM | NCI-H460 > 100 µM | SF-539 > 100 µM | NCI-H23 > 100 µM | SN12C > 100 µM | MCF7 > 100 µM | Hs-578T > 100 µM | SF-295 > 100 µM | HCT-116 > 100 µM | SF-268 > 100 µM | MDA-MB-231 > 100 µM

COc1ccc(/C=C2\CCC(C)C3=C(c4ccc(OC)c(OC)c4)C(C#N)=C(N)OC32)cc1OC (configuration not stated)
inactive: U-251 3.58 µM | SNB-75 2.33 µM | SK-MEL-28 3.86 µM | KM12 3.3 µM | CAKI-1 4.36 µM | RXF 393 1.65 µM | OVCAR-3 3.58 µM | HT-29 2.75 µM | NCI-H460 3.03 µM | SF-539 1.55 µM | NCI-H23 2.7 µM | SN12C 3.45 µM | MCF7 3.26 µM | Hs-578T 4.42 µM | SF-295 3.43 µM | HCT-116 2.82 µM | SF-268 9.77 µM | MDA-MB-231 2.95 µM | SK-MEL-2 1.97 µM

C(=N\N=C1NCCCCN1)/c1ccc2ccccc2c1
inactive: U-251 21.3 µM | SNB-75 13 µM | SK-MEL-28 21.3 µM | KM12 26.9 µM | RXF 393 22.8 µM | OVCAR-3 46.8 µM | HCC 2998 15.3 µM | HT-29 22.8 µM | NCI-H460 22.3 µM | SF-539 20.4 µM | NCI-H23 76.7 µM | SN12C 39.9 µM | MCF7 29.4 µM | Hs-578T 92.9 µM | SF-295 21.3 µM | HCT-116 33.7 µM | SF-268 45.3 µM | MDA-MB-231 31.4 µM | SK-MEL-2 21.9 µM

O=C(O)c1nc2ccc(C(F)(F)F)cc2nc1Nc1ccc(Cl)c(Cl)c1
inactive: U-251 3.93 µM | SNB-75 13.2 µM | SK-MEL-28 13 µM | KM12 6.98 µM | CAKI-1 15.5 µM | RXF 393 13.4 µM | OVCAR-3 6.37 µM | HCC 2998 4.99 µM | HT-29 9.16 µM | NCI-H460 7.41 µM | NCI-H23 4.17 µM | SN12C 7.67 µM | MCF7 14.3 µM | Hs-578T 18.4 µM | SF-295 4.36 µM | HCT-116 5.12 µM | SF-268 4.46 µM | MDA-MB-231 6.05 µM | SK-MEL-2 2.31 µM

O=C(CSc1nc2ccc(I)cc2c(=O)n1Cc1ccccc1)Nc1ccccc1
inactive: U-251 14.3 µM | SNB-75 2.94 µM | SK-MEL-28 35.6 µM | KM12 94.4 µM | CAKI-1 12.9 µM | RXF 393 10 µM | OVCAR-3 10.8 µM | HT-29 > 100 µM | SF-539 3.08 µM | NCI-H23 69.2 µM | SN12C 19.6 µM | MCF7 50.6 µM | Hs-578T 3.65 µM | SF-295 14.9 µM | HCT-116 42.1 µM | SF-268 8.77 µM | MDA-MB-231 16.5 µM | SK-MEL-2 13.8 µM

CNC(=O)CCC(NC(C)=O)C(=O)NC(Cc1ccc(NC(=O)CCCCC(C)=O)cc1)C(=O)NC(CCC(=O)NC)C(=O)NC (configuration not stated)
inactive: U-251 > 100 µM | SK-MEL-28 > 100 µM | KM12 > 100 µM | CAKI-1 > 100 µM | RXF 393 > 100 µM | OVCAR-3 > 100 µM | HCC 2998 > 100 µM | HT-29 > 100 µM | NCI-H460 > 100 µM | SF-539 > 100 µM | NCI-H23 > 100 µM | SN12C > 100 µM | MCF7 > 100 µM | Hs-578T 40.2 µM | SF-295 > 100 µM | HCT-116 > 100 µM | SF-268 > 100 µM | MDA-MB-231 > 100 µM

CC1(C)C2C=CC1(C)C1(CC2)OCCO1 (configuration not stated)
inactive: U-251 > 100 µM | SNB-75 66.1 µM | SK-MEL-28 > 100 µM | KM12 > 100 µM | RXF 393 > 100 µM | OVCAR-3 > 100 µM | HCC 2998 > 100 µM | HT-29 > 100 µM | NCI-H460 > 100 µM | SF-539 > 100 µM | NCI-H23 > 100 µM | SN12C > 100 µM | MCF7 > 100 µM | Hs-578T > 100 µM | SF-295 > 100 µM | HCT-116 > 100 µM | SF-268 > 100 µM | MDA-MB-231 > 100 µM | SK-MEL-2 > 100 µM

O=c1cc(NNCc2ccccc2)[nH]c(=O)[nH]1
inactive: U-251 > 100 µM | SK-MEL-28 > 100 µM | KM12 > 100 µM | CAKI-1 > 100 µM | RXF 393 > 100 µM | OVCAR-3 > 100 µM | HCC 2998 > 100 µM | HT-29 > 100 µM | NCI-H460 > 100 µM | SF-539 > 100 µM | NCI-H23 > 100 µM | SN12C > 100 µM | MCF7 > 100 µM | Hs-578T 58.1 µM | SF-295 > 100 µM | HCT-116 > 10 µM | SF-268 > 100 µM | MDA-MB-231 > 100 µM

CCn1c2ccccc2c2ccc(C3C4C(=O)N(c5cccc6ccccc56)C(=O)C4ON3C(C(N)=O)c3ccccc3)cc21 (configuration not stated)
inactive: U-251 10.8 µM | SNB-75 > 25 µM | SK-MEL-28 > 25 µM | KM12 9.95 µM | CAKI-1 4.66 µM | RXF 393 9.89 µM | OVCAR-3 13.7 µM | HT-29 8.24 µM | NCI-H460 12.9 µM | SF-539 7.59 µM | NCI-H23 24 µM | SN12C 16.7 µM | MCF7 8.38 µM | Hs-578T > 25 µM | SF-295 > 25 µM | HCT-116 13 µM | SF-268 > 25 µM | MDA-MB-231 > 25 µM | SK-MEL-2 12.4 µM

O=Cc1ccc(OCc2cccc(COc3ccc(/C=N\Nc4ccc([N+](=O)[O-])cc4[N+](=O)[O-])cc3)n2)cc1
inactive: U-251 63.5 µM | SK-MEL-28 > 100 µM | KM12 > 100 µM | CAKI-1 > 100 µM | RXF 393 43.2 µM | OVCAR-3 > 100 µM | HCC 2998 > 100 µM | HT-29 > 100 µM | NCI-H460 > 100 µM | NCI-H23 > 100 µM | SN12C > 100 µM | MCF7 > 100 µM | Hs-578T > 100 µM | SF-295 > 100 µM | HCT-116 > 100 µM | SF-268 > 100 µM | MDA-MB-231 43.6 µM | SK-MEL-2 89.5 µM
